According to patent US20090082337A1, “Compositions Comprising Quinolone and Methods for Treating or Controlling Infections” (priority 2007, published 2009):
Converted amounts (≈) assume the structure as drawn. Like-named read-outs stand apart in the source and are kept apart here.

Experiments:
Type in all cases: cell-based
[1] = system: Salmonella typhimurium (TD); experiment: In vitro anti-bacterial activity (MIC90), Gram-negative bacteria; conditions: Salmonella enterica, Gram-negative reference strain
Method: Anti-bacterial activity of the compound having Formula IV was tested against several Gram-negative reference bacteria strains and compared to the anti-bacterial activity of three commercially available antibiotics (nadifloxacin, ofloxacin, and sparfloxacin).

[2] = system: Bacillis subtilis (ATCC 6633); experiment: In vitro anti-bacterial activity (MIC90), Gram-positive bacteria; conditions: Gram-positive reference strain
Method: (§1) In yet another aspect, said another quinolone has a MIC90 value for a Gram-negative bacterium that is lower than that of the fluoroquinolone having Formula I, II, III, IV, V, VI, VII, or VIII for the same bacterium, said fluoroquinolone being included in the composition. MIC90 is the minimum concentration of the active compound required to inhibit ninety percent of the growth of a specified pathogen, in μg/ml. Anti-bacterial activity of the compound having Formula […] was tested against several Gram-positive reference bacteria strains and compared to the anti-bacterial activity of three commercially available antibiotics (nadifloxacin, ofloxacin, and sparfloxacin).

[3] = system: Sarcina lutea (ATCC 9341); experiment: as above; conditions: Micrococcus luteus, ATCC9341, Gram-positive reference strain
Method: as §1

[4] = system: Staphylococcus aureus (ATCC 25933); experiment: as above; conditions: ATCC25933, Gram-positive reference strain
Method: as §1

[5] = system: Staphylococcus aureus (FDA 209P); experiment: as above; conditions: FDA209P, Gram-positive reference strain
Method: as §1

[6] = system: Staphylococcus aureus (Smith); experiment: as above; conditions: Gram-positive reference strain
Method: as §1

[7] = system: Staphylococcus epidermidis (ATCC 12228); experiment: as above; conditions: ATCC12228, Gram-positive reference strain
Method: as §1

[8] = system: Streptococcus faecalis (ATCC 29212); experiment: as above; conditions: Enterococcus faecalis, ATCC29212, Gram-positive reference strain
Method: as §1

[9] = system: Streptococcus faecalis (IFO 12964); experiment: as above; conditions: Enterococcus faecalis, IFO12964, Gram-positive reference strain
Method: as §1

[10] = system: Streptococcus pneniae (IID 554); experiment: as above; conditions: IID554, Gram-positive reference strain
Method: as §1

[11] = system: Streptococcus pneumoniae (IID 553); experiment: as above; conditions: IID553, Gram-positive reference strain
Method: as §1

[12] = system: Streptococcus pyogenes (Cook); experiment: as above; conditions: Gram-positive reference strain
Method: as §1

[13] = system: Streptococcus pyogenes (IID 698); experiment: as above; conditions: IID698, Gram-positive reference strain
Method: as §1

[14] = system: Staphylococcus aureus (ATCC 33591); experiment: In vitro anti-bacterial activity (MIC90), methicillin-resistant Staphylococcus aureus isolates; conditions: ATCC33591; methicillin-resistant Staphylococcus aureus (ATCC 33591)
Method: (§2) In yet another aspect, said another quinolone has a MIC90 value for a Gram-negative bacterium that is lower than that of the fluoroquinolone having Formula I, II, III, IV, V, VI, VII, or VIII for the same bacterium, said fluoroquinolone being included in the composition. MIC90 is the minimum concentration of the active compound required to inhibit ninety percent of the growth of a specified pathogen, in μg/ml.
(§3) Anti-bacterial activity of the compound having Formula IV was tested against some methicillin-resistant Staphylococcus aureus bacteria strains and compared to the anti-bacterial activity of three commercially available antibiotics (nadifloxacin, ofloxacin, and sparfloxacin).

[15] = system: Staphylococcus aureus (ATCC 33592); experiment: as above; conditions: ATCC33592; methicillin-resistant Staphylococcus aureus (ATCC 33592)
Method: as §2, §3

[16] = system: Staphylococcus aureus (ATCC 33593); experiment: as above; conditions: ATCC33593; methicillin-resistant Staphylococcus aureus (ATCC 33593)
Method: as §2, §3

[17] = system: Staphylococcus aureus (No. 395); experiment: as above; conditions: methicillin-resistant Staphylococcus aureus (No. 395)
Method: as §2, §3

[18] = system: Staphylococcus aureus (No. 415); experiment: as above; conditions: methicillin-resistant Staphylococcus aureus (No. 415)
Method: as §2, §3

[19] = system: Staphylococcus aureus (No. 419); experiment: as above; conditions: methicillin-resistant Staphylococcus aureus (No. 419)
Method: as §2, §3

[20] = system: Staphylococcus aureus (No. 420); experiment: as above; conditions: methicillin-resistant Staphylococcus aureus (No. 420)
Method: as §2, §3

[21] = system: Staphylococcus aureus (No. 421); experiment: as above; conditions: methicillin-resistant Staphylococcus aureus (No. 421)
Method: as §2, §3

[22] = system: Peptostreptococcus micros (GIFU 7824); experiment: In vitro anti-bacterial activity (MIC90), anaerobic bacteria; conditions: Parvimonas micra, anaerobic reference bacteria
[23] = system: Peptostreptococcus magnum (GAI 0664); experiment: as above; conditions: anaerobic reference bacteria
[24] = system: Propionibacterium acnes (GAI 5419); experiment: as above; conditions: Cutibacterium acnes, anaerobic reference bacteria
[25] = system: Propionibacterium acnes (ATCC 6919); experiment: as above; conditions: Cutibacterium acnes, ATCC6919, anaerobic reference bacteria
[26] = system: Bacteroides fragillis (GAI 0675); experiment: as above; conditions: anaerobic reference bacteria
[27] = system: Bacteroides thetaiotaomicron (GAI 0659); experiment: as above
[28] = system: Bacteroides vulgatus (GAI 0673); experiment: as above; conditions: Phocaeicola vulgatus, anaerobic reference bacteria

Structure (SMILES) | MIC90 [1] [µg/mL] | MIC90 [2] [µg/mL] | MIC90 [3] [µg/mL] | MIC90 [4] [µg/mL] | MIC90 [5] [µg/mL] | MIC90 [6] [µg/mL] | MIC90 [7] [µg/mL] | MIC90 [8] [µg/mL] | MIC90 [9] [µg/mL] | MIC90 [10] [µg/mL] | MIC90 [11] [µg/mL] | MIC90 [12] [µg/mL] | MIC90 [13] [µg/mL] | MIC90 [14] [µg/mL] | MIC90 [15] [µg/mL] | MIC90 [16] [µg/mL] | MIC90 [17] [µg/mL] | MIC90 [18] [µg/mL] | MIC90 [19] [µg/mL] | MIC90 [20] [µg/mL] | further results
N[C@@H]1CCCCN(c2c(F)cc3c(=O)c(C(=O)O)cn(C4CC4)c3c2Cl)C1 [Compound Having Formula IV] | 0.05 | 0.012 | 0.1 | 0.05 | 0.012 | 0.006 | 0.05 | 0.2 | 0.1 | 0.2 | 0.1 | 0.1 | 0.1 | 0.012 | 0.05 | 0.012 | 0.006 | 0.05 | 0.1 | 0.1 | MIC90 [21]: 0.2 µg/mL; MIC90 [22]: 0.2 µg/mL; MIC90 [23]: 0.05 µg/mL; MIC90 [24]: 0.2 µg/mL; MIC90 [25]: 0.2 µg/mL; MIC90 [26]: 0.1 µg/mL; MIC90 ([27]; Bacteroides thetaiotaomicron (GAI 0659), anaerobic reference bacteria, read-out: MIC90): 0.2 µg/mL; MIC90 [28]: 0.1 µg/mL
CC1CCc2c(N3CCC(O)CC3)c(F)cc3c(=O)c(C(=O)O)cn1c23 (stereo not shown) [Nadifloxacin, nadifloxacin] | 0.2 (≈ 0.555 µM) | 0.006 (≈ 0.0166 µM) | 0.39 (≈ 1.08 µM) | 0.05 (≈ 0.139 µM) | 0.024 (≈ 0.0666 µM) | 0.024 (≈ 0.0666 µM) | 0.1 (≈ 0.277 µM) | 0.78 (≈ 2.16 µM) | 0.78 (≈ 2.16 µM) | 0.78 (≈ 2.16 µM) | 0.78 (≈ 2.16 µM) | 0.78 (≈ 2.16 µM) | 0.1 (≈ 0.277 µM) | 0.006 (≈ 0.0166 µM) | 0.05 (≈ 0.139 µM) | 0.024 (≈ 0.0666 µM) | 0.024 (≈ 0.0666 µM) | 0.1 (≈ 0.277 µM) | 0.39 (≈ 1.08 µM) | 0.78 (≈ 2.16 µM) | MIC90 [21]: 0.78 µg/mL (≈ 2.16 µM); MIC90 [22]: 0.39 µg/mL (≈ 1.08 µM); MIC90 [23]: 0.2 µg/mL (≈ 0.555 µM); MIC90 [24]: 0.2 µg/mL (≈ 0.555 µM); MIC90 [25]: 0.2 µg/mL (≈ 0.555 µM); MIC90 [26]: 1.56 µg/mL (≈ 4.33 µM); MIC90 ([27]; Bacteroides thetaiotaomicron): 1.56 µg/mL (≈ 4.33 µM); MIC90 [28]: 0.78 µg/mL (≈ 2.16 µM)
CC1COc2c(N3CCN(C)CC3)c(F)cc3c(=O)c(C(=O)O)cn1c23 (stereo not shown) [Ofloxacin, ofloxacin] | 0.05 (≈ 0.138 µM) | 0.05 (≈ 0.138 µM) | 3.13 (≈ 8.66 µM) | 0.39 (≈ 1.08 µM) | 0.2 (≈ 0.553 µM) | 0.2 (≈ 0.553 µM) | 0.78 (≈ 2.16 µM) | 1.56 (≈ 4.32 µM) | 1.56 (≈ 4.32 µM) | 1.56 (≈ 4.32 µM) | 1.56 (≈ 4.32 µM) | 0.78 (≈ 2.16 µM) | 0.39 (≈ 1.08 µM) | 0.05 (≈ 0.138 µM) | 0.39 (≈ 1.08 µM) | 0.2 (≈ 0.553 µM) | 0.2 (≈ 0.553 µM) | 0.78 (≈ 2.16 µM) | 3.13 (≈ 8.66 µM) | 1.56 (≈ 4.32 µM) | MIC90 [21]: 1.56 µg/mL (≈ 4.32 µM); MIC90 [22]: 0.78 µg/mL (≈ 2.16 µM); MIC90 [23]: 0.39 µg/mL (≈ 1.08 µM); MIC90 [24]: 0.78 µg/mL (≈ 2.16 µM); MIC90 [25]: 0.78 µg/mL (≈ 2.16 µM); MIC90 [26]: 1.56 µg/mL (≈ 4.32 µM); MIC90 ([27]; Bacteroides thetaiotaomicron): 3.13 µg/mL (≈ 8.66 µM); MIC90 [28]: 3.13 µg/mL (≈ 8.66 µM)
C[C@@H]1CN(c2c(F)c(N)c3c(=O)c(C(=O)O)cn(C4CC4)c3c2F)C[C@H](C)N1 [Sparfloxacin, sparfloxacin] | 0.012 (≈ 0.0306 µM) | 0.024 (≈ 0.0612 µM) | 1.56 (≈ 3.98 µM) | 0.1 (≈ 0.255 µM) | 0.024 (≈ 0.0612 µM) | 0.05 (≈ 0.127 µM) | 0.2 (≈ 0.51 µM) | 0.39 (≈ 0.994 µM) | 0.78 (≈ 1.99 µM) | 0.39 (≈ 0.994 µM) | 0.39 (≈ 0.994 µM) | 0.39 (≈ 0.994 µM) | 0.2 (≈ 0.51 µM) | 0.024 (≈ 0.0612 µM) | 0.1 (≈ 0.255 µM) | 0.024 (≈ 0.0612 µM) | 0.05 (≈ 0.127 µM) | 0.2 (≈ 0.51 µM) | 1.56 (≈ 3.98 µM) | 0.78 (≈ 1.99 µM) | MIC90 [21]: 0.39 µg/mL (≈ 0.994 µM); MIC90 [22]: 0.78 µg/mL (≈ 1.99 µM); MIC90 [23]: 0.1 µg/mL (≈ 0.255 µM); MIC90 [24]: 0.39 µg/mL (≈ 0.994 µM); MIC90 [25]: 0.39 µg/mL (≈ 0.994 µM); MIC90 [26]: 0.78 µg/mL (≈ 1.99 µM); MIC90 ([27]; Bacteroides thetaiotaomicron): 0.78 µg/mL (≈ 1.99 µM); MIC90 [28]: 0.78 µg/mL (≈ 1.99 µM)
